Our source for the IC50 values is article PMC2910072 (Nucleic Acids Research, 2010).

By IC50 is commonly meant the point on the concentration scale where inhibition reaches its midpoint. A lower IC50 goes with greater potency in that assay.

The target of the assay is E. coli RNA polymerase β subunit (wild-type) (Escherichia coli, UniProt P0A8V2). As to the kind of experiment: coupled cell-free synthesis of RNAP holoenzyme with firefly luciferase reporter. It counts as biochemical. (In general: Reporter assays use an easily measured gene product as a stand-in for the process of interest.)
Chain of E. coli RNA polymerase β subunit (wild-type) (P0A8V2 whole entry): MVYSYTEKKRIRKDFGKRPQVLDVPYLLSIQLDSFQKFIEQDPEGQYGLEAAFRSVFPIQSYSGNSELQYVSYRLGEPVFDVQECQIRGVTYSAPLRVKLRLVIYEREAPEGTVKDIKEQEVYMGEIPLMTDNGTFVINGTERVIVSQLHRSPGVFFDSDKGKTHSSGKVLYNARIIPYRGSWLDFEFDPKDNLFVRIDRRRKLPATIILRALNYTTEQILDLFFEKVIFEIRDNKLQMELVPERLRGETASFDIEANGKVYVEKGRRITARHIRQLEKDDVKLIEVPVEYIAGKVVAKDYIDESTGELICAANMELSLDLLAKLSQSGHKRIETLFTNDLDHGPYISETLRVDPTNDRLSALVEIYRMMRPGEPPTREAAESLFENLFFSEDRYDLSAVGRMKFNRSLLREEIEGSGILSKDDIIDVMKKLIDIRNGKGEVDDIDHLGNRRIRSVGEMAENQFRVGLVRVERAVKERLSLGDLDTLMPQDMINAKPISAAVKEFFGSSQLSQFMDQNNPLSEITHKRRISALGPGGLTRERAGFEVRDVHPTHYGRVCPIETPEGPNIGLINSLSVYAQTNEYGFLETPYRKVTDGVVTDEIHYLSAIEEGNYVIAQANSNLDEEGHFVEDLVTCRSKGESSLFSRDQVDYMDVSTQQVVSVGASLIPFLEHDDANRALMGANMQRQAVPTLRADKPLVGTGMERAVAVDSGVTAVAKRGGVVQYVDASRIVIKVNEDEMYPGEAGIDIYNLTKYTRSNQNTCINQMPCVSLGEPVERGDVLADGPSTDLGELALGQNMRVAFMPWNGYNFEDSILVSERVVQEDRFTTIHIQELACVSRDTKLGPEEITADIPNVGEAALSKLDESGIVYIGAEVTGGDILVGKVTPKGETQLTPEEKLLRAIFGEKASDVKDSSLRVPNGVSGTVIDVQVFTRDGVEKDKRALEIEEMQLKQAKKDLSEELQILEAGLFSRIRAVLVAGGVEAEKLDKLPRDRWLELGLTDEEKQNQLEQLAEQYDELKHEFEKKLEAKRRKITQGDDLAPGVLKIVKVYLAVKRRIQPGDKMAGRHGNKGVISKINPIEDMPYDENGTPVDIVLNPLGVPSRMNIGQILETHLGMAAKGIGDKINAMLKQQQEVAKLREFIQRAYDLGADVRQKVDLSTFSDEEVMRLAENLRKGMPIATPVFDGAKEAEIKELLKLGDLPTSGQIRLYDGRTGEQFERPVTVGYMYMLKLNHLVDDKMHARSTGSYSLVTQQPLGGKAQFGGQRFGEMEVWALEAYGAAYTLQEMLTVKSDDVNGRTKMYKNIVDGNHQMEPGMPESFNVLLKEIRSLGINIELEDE
Chain of E. coli RNA polymerase β subunit (wild-type) (P0A7Z4 whole entry partner): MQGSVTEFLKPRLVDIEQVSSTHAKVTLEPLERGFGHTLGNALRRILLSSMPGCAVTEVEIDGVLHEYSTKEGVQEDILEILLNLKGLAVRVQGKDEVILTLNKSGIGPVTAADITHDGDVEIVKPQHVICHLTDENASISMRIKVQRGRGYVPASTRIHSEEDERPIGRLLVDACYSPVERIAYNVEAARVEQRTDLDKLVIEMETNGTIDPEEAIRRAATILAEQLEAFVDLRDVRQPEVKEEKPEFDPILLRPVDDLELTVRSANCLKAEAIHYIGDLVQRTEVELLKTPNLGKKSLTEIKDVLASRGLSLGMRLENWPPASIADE
Chain of E. coli RNA polymerase β subunit (wild-type) (P0A8T7 whole entry partner): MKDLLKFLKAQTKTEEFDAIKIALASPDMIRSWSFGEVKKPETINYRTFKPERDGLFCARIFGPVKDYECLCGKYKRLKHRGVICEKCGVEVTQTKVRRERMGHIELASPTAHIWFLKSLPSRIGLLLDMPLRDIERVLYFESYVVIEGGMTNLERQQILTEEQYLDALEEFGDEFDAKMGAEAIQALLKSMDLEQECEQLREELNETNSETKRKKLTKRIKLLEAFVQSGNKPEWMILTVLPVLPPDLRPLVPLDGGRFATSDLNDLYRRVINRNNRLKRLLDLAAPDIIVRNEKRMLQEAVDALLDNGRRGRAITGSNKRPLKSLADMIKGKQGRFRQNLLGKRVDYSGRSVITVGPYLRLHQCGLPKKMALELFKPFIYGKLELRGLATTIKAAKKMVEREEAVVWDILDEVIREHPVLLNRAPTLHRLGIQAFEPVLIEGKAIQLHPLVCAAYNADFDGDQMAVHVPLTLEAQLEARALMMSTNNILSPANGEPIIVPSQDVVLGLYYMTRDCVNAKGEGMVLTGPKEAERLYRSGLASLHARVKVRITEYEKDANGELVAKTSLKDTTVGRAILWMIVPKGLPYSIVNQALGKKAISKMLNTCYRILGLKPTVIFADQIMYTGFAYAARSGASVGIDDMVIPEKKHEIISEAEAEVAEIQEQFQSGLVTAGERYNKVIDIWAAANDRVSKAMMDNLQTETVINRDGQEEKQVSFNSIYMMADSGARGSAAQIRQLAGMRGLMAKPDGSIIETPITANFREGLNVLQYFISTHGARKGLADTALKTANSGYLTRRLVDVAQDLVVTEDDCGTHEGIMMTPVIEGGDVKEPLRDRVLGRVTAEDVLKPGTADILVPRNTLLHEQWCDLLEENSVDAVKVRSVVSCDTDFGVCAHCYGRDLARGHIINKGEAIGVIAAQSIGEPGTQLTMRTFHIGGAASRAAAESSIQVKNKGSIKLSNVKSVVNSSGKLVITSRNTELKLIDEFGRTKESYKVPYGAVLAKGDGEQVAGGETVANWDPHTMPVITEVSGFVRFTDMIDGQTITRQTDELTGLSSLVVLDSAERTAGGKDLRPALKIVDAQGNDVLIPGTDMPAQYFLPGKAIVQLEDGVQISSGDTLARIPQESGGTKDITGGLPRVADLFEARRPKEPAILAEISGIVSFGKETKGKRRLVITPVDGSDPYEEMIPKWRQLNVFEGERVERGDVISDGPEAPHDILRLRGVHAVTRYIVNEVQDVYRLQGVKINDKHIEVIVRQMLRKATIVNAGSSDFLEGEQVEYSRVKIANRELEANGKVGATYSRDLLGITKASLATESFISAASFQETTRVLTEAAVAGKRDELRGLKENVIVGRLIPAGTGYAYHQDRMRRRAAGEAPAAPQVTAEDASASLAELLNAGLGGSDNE
Chain of E. coli RNA polymerase β subunit (wild-type) (P0A800 2-91 partner): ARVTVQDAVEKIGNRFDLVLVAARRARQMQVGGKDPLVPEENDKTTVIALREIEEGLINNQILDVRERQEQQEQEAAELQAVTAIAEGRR
Chain of E. coli RNA polymerase β subunit (wild-type) (P0AGB3 whole entry partner): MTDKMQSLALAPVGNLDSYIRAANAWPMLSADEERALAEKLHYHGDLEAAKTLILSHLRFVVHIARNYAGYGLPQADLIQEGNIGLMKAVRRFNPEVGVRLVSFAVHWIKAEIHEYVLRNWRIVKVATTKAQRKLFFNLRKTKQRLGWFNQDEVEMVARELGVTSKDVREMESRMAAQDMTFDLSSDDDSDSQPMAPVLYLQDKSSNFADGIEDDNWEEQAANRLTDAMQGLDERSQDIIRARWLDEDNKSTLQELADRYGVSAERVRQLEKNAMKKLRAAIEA

Compound `CO[C@H]1/C=C/O[C@@]2(C)Oc3c(C)c(O)c4c(O)c(c(/C=N/N5CCN(C)CC5)c(O)c4c3C2=O)NC(=O)/C(C)=C\C=C\[C@H](C)[C@H](O)[C@@H](C)[C@@H](O)[C@@H](C)[C@H](OC(C)=O)[C@@H]1C` [rifampicin] came in with an IC50 of around 200 nM.
